Test results as given in EP4570800A1, “CRYSTAL FORM OF PYRIDINOPYRIMIDINONE COMPOUND, ACID SALT THEREOF, CRYSTAL FORM OF ACID SALT THEREOF, AND USE” (Wuhan Humanwell Innovative Drug Research and Development …, priority 2022, dated 2024).
Counter-ions that a name gives are not always drawn.

Columns and labels:
[1] = Solid state stability (XRPD and HPLC); type: physicochemical
Method: The purity test, dynamic solubility test, and stability test in the assay were measured with an Agilent 1260 high-performance liquid chromatograph, and the salt formation molar ratio of ions was tested by ion chromatography, and the analytical conditions are shown in Table 5 and Table 6.
Table 56 Summary of solid state stability evaluation

[2] = Dynamic solubility in water, SGF, FaSSIF and FeSSIF; conditions: for S: solubility: 37°C, solid feed concentration 10 mg/mL; for pH: pH value of the filtrate
Method: 100 mg of NaCl and 50 mg of Triton X-100 were weighed into a 50 mL volumetric flask, and purified water was added to complete dissolution. 816 µL of 1 M hydrochloric acid was added thereto, and the pH was adjusted to 1.8 with 1 M hydrochloric acid or 1 M NaOH solution. Purified water was added to make up to volume.
340 mg of anhydrous NaH2PO4, 42 mg of NaOH, and 620 mg of NaCl were weighed into a 100 mL volumetric flask. Purified water was added to complete dissolution. The pH was adjusted to 6.5 with 1 M hydrochloric acid or 1 M NaOH solution. Purified water was added to make up to volume. 110 mg of SIF powder was then weighed into a 50 mL volumetric flask, added with the above solution to complete dissolution and make up to volume.
About 90 mL of purified water was added to complete dissolution, and the pH was adjusted to 5.0 with 1 M hydrochloric acid or 1 M NaOH solution. Purified water was added to make up to volume. 560 mg of SIF powder was then weighed into a 50 mL volumetric flask, added with the above solution to complete dissolution and make up to volume.
Rotating mixing was carried out at 37°C at a solid feed concentration of 10 mg/mL (calculated as the compound of formula I). […] After sampling at each time point, the samples were centrifuged (10000 rpm) and filtered (0.45 µm PTFE filter head), and the HPLC concentration and pH value of the filtrate were measured.

[3] = test system: Mia Paca-2 pancreatic cancer; experiment: In vivo efficacy test on Mia Paca-2 pancreatic cancer; design: species or system mice; conditions: Mia Paca-2, BID
Method: (§1) After one week of adaptive feeding of mice, Mia Paca-2 cells in a logarithmic phase were resuspended in serum-free DMEM, and then mixed with Matrigel in a ratio of 1: 1. 1 × 10^7 Mia Paca-2 cells were inoculated subcutaneously at the right flank at 100 µL per mouse, and tumor growth was observed regularly. When the tumor grew to an average volume of 150 to 200 mm^3, the mice were randomly divided into a model group and an administration group (single drug, in combination with trametinib) based on the tumor size and body weight. The tumor size and body weight were measured and recorded before and during the administration. After the treatment, the tumor size in the model group was compared with that in the administration group to determine the efficacy.

LOVO colorectal cancer = experiment: In vivo efficacy test on LOVO colorectal cancer; design: species or system mice; conditions: 50 mg/kg, BID
Method: as §1, with “LOVO” for “Mia Paca-2”, “F12K, 5” for “DMEM, and then mixed with Matrigel in a ratio of 1: 1. 1”, “10^6 LOVO” for “10^7 Mia Paca-2”, “group” for “group (single drug, in combination with trametinib)”

[4] = XRPD after 25°C/60%RH/open, 1 week
[5] = XRPD after 40°C/75%RH/open, 1 week

Row | SMILES | HPLC results Purity (area%) ([1]; 25°C/60%RH/open, 1 week) | HPLC results Purity (area%) ([1]; 40°C/75%RH/open, 1 week) | HPLC results Purity (area%) ([1]; Onset) | Crystal form [1, 4] | Crystal form [1, 5] | S: solubility ([2]; FaSSIF, 1 hour, 60 min) [µg/mL] | S: solubility ([2]; FaSSIF, 4 hours, 240 min) [µg/mL] | S: solubility ([2]; FaSSIF, 24 hours, 1440 min) [µg/mL] | S: solubility ([2]; H2O, 1 hour, 60 min) [µg/mL] | S: solubility ([2]; H2O, 4 hours, 240 min) [µg/mL] | S: solubility ([2]; H2O, 24 hours, 1440 min) [µg/mL] | S: solubility ([2]; SGF, 1 hour, 60 min) [µg/mL] | S: solubility ([2]; SGF, 4 hours, 240 min) [µg/mL] | S: solubility ([2]; SGF, 24 hours, 1440 min) [µg/mL] | pH ([2]; FaSSIF, 1 hour) | pH ([2]; FaSSIF, 4 hours) | pH ([2]; FaSSIF, 24 hours) | pH ([2]; FeSSIF, 1 hour) | pH ([2]; FeSSIF, 4 hours) | pH ([2]; FeSSIF, 24 hours) | further results
1 | Cc1nc(N[C@H](C)c2cccc(S(F)(F)(F)(F)F)c2)c2cn(C3(CF)CC3)c(=O)cc2n1 [Crystal form A of fumarate salt] | 98.67 | 98.70 | 98.67 | Crystal form A of fumarate salt | Crystal form A of fumarate salt | 360 | 320 | 320 | 550 | 570 | 610 | 1960 | 1940 | 2090 | 4.8 | 4.6 | 4.3 | 4.6 | 4.8 | 4.7 | pH ([2]; H2O, 1 hour): 4.2; pH ([2]; H2O, 4 hours): 4.2; pH ([2]; H2O, 24 hours): 4.1; pH ([2]; SGF, 1 hour): 1.8; pH ([2]; SGF, 4 hours): 2.0; pH ([2]; SGF, 24 hours): 1.7
2 | Cc1nc(N[C@H](C)c2cccc(S(F)(F)(F)(F)F)c2)c2cn(C3(CF)CC3)c(=O)cc2n1 [Crystal form A of methanesulfonate salt] | 99.21 | 99.26 | 99.18 | Crystal form A of methanesulfonate salt | Crystal form A of methanesulfonate salt | 1440 | 1610 | 1830 | 10250 | 10160 | 9920 | 9760 | 9880 | 10130 | 4.3 | 4.4 | 4.0 | 4.8 | 4.8 | 4.8 | S: solubility ([2]; FeSSIF, 1 hour, 60 min): 4040 µg/mL; S: solubility ([2]; FeSSIF, 4 hours, 240 min): 4160 µg/mL; S: solubility ([2]; FeSSIF, 24 hours, 1440 min): 4240 µg/mL; pH ([2]; H2O, 1 hour): 3.5; pH ([2]; H2O, 4 hours): 3.5; pH ([2]; H2O, 24 hours): 3.1; pH ([2]; SGF, 1 hour): 1.7; pH ([2]; SGF, 4 hours): 1.8; pH ([2]; SGF, 24 hours): 1.6
3 | CC(=O)Nc1cccc(-n2c(=O)n(C3CC3)c(=O)c3c(Nc4ccc(I)cc4F)n(C)c(=O)c(C)c32)c1 [Trametinib] | – | – | – | – | – | – | – | – | – | – | – | – | – | – | – | – | – | – | – | – | Average tumor weight at the end of the treatment ([3]; 0.125 mg/kg): 0.22 g
4 | Cc1nc(N[C@H](C)c2cccc(S(F)(F)(F)(F)F)c2)c2cn(C3(CF)CC3)c(=O)cc2n1 [Crystal form A of ethanesulfonate salt] | 99.15 | 99.29 | 99.10 | Crystal form A of ethanesulfonate salt | Crystal form A of ethanesulfonate salt | 620 | 1610 | 2520 | 10060 | 9810 | 10080 | 10420 | 10130 | 10110 | 4.5 | 4.2 | 3.7 | 4.8 | 4.8 | 4.7 | S: solubility ([2]; FeSSIF, 1 hour, 60 min): 2790 µg/mL; S: solubility ([2]; FeSSIF, 4 hours, 240 min): 3620 µg/mL; S: solubility ([2]; FeSSIF, 24 hours, 1440 min): 3700 µg/mL; pH ([2]; H2O, 1 hour): 2.9; pH ([2]; H2O, 4 hours): 3.1; pH ([2]; H2O, 24 hours): 2.8; pH ([2]; SGF, 1 hour): 1.6; pH ([2]; SGF, 4 hours): 1.5; pH ([2]; SGF, 24 hours): 1.5
5 | Cc1nc(N[C@H](C)c2cccc(S(F)(F)(F)(F)F)c2)c2cn(C3(CF)CC3)c(=O)cc2n1 [Crystal form B of citrate salt] | 99.00 | 99.01 | 98.92 | Crystal form A of citrate salt | Crystal form A of citrate salt | 790 | 1180 | 1610 | 3610 | 3600 | 3680 | 9130 | 9400 | 9290 | 4.5 | 3.9 | 3.6 | 4.8 | 4.6 | 4.5 | S: solubility ([2]; FeSSIF, 1 hour, 60 min): 4090 µg/mL; S: solubility ([2]; FeSSIF, 4 hours, 240 min): 3520 µg/mL; S: solubility ([2]; FeSSIF, 24 hours, 1440 min): 2960 µg/mL; pH ([2]; H2O, 1 hour): 3.5; pH ([2]; H2O, 4 hours): 3.5; pH ([2]; H2O, 24 hours): 3.3; pH ([2]; SGF, 1 hour): 2.5; pH ([2]; SGF, 4 hours): 2.6; pH ([2]; SGF, 24 hours): 2.4
6 | Cc1nc(N[C@H](C)c2cccc(C(F)F)c2F)c2cn(C3(C(F)F)CC3)c(=O)cc2n1 [Control compound 2, reference compound] | – | – | – | – | – | – | – | – | – | – | – | – | – | – | – | – | – | – | – | – | Average tumor weight at the end of the treatment ([3]; 50 mg/kg): 0.46 g; At the end of treatment Average tumor weight (LOVO colorectal cancer): 1.08 g
